Measurements reported in US20240199525A1, “SHP2-Targeting Small Molecules For Use As Anti-Cancer Agents” (West Virginia University Board of Governors on behalf of …, priority 2022, published 2024).
pIC50: −log10 of the molar value. Read-outs that look alike come from different tables or passages of the source.

Tests used:
[1] = target: T1, purified PTP domain of SHP1 (Homo sapiens (Human), UniProt P29350); conditions: previously reported; cited from earlier work
[2] = target: T2, purified PTP domain of SHP2 (Homo sapiens (Human), UniProt Q06124); test: PTPase assay with DiFMUP, SHP2; format: biochemical; conditions: for fold difference: SHP2 IC50 relative to CNBCA; for pIC50: 1 nM enzyme, 20 μM DiFMUP, 37° C., 20 min
[3] = target: T2, purified PTP domain of SHP2; conditions: previously reported value; read-out: IC50 SHP2 PTPase activity, parent compound; cited from earlier work
[4] = target: PTP1B (Homo sapiens (Human), UniProt P18031); test: CETSA with CNBCA, nontarget PTP1B in breast cancer cell lysates; format: binding; conditions: 100 μM CNBCA
Chain of PTP1B (P18031 whole entry): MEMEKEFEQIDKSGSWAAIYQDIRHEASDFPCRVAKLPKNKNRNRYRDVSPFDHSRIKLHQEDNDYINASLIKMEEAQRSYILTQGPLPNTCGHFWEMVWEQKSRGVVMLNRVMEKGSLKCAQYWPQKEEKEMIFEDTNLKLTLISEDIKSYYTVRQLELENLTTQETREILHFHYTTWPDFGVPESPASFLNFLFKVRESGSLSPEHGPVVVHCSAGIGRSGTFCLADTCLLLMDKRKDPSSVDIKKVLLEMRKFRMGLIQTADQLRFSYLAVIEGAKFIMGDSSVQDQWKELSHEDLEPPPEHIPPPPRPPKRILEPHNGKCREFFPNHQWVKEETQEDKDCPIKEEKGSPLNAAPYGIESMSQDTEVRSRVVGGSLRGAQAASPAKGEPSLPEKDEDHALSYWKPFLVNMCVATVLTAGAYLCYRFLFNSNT

[5] = tested on: BT474 and MDA-MB468 cells; test: Colony formation in soft agar, CNBCA; format: cell-based; conditions: 500 nM, 10 days
[6] = target: FL-SHP2 (Homo sapiens (Human), UniProt Q06124); test: PTPase assay on FLAG-tagged FL-SHP2 immunoprecipitated from MDA-MB468 cells; format: biochemical; conditions: 20 μM DiFMUP
[7] = target: purified PTP domain of PTP1B (Homo sapiens (Human), UniProt P18031); test: PTPase assay with DiFMUP, PTP1B; format: biochemical
Chain of purified PTP domain of PTP1B (P18031 3-277): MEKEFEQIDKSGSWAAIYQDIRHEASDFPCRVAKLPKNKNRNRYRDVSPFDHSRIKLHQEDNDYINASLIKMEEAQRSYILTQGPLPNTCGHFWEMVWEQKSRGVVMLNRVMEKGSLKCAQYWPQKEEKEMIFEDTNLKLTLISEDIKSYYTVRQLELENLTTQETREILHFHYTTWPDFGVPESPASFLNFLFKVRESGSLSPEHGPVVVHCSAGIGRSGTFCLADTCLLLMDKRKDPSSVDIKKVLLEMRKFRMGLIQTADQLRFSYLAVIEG

[8] = tested on: BT474 and MDA-MB468 cells; test: Mammosphere formation in suspension culture, CNBCA; format: cell-based; conditions: 500 nM, 10 days
[9] = target: SHP2 (Homo sapiens (Human), UniProt Q06124); test: Enzyme kinetic studies with DiFMUP (Michaelis-Menten, Lineweaver-Burk); format: biochemical; conditions: for Km: 36.05 in its absence
[10] = tested on: BT474 and MDA-MB468 cells; test: Cell growth in 2D culture, CNBCA; format: cell-based; conditions: 500 nM, 72 h
[11] = target: T1, purified PTP domain of SHP1; test: PTPase assay with DiFMUP, SHP1; format: biochemical
[12] = tested on: Akt and ERK1/2 activation in BT474 and MDA-MB468 cells; test: Immunoblotting for basal pERK1/2 and pAkt, CNBCA; format: cell-based; conditions: 48 h

T1 sequence (P29350 244-515): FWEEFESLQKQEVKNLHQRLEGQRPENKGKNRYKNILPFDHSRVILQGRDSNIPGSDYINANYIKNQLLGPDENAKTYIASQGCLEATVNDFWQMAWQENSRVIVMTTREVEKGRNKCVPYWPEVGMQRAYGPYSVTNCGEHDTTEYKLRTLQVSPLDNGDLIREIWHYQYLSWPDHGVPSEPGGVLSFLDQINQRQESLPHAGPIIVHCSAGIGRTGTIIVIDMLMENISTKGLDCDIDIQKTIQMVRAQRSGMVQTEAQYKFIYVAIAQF

CCCCCCCCCOc1c(CCCC(=O)O)cc(-c2ccc(C(=O)O)cc2)cc1CCCC(=O)O [CNBDA]
selective to SHP2 than to SHP1, parent compound [1]: approximately 25 fold | fold difference [2]: 5.7 | pIC50 [3]: 5.30

CCCCCCCCCOc1ccc(-c2ccc(CC(=O)O)cc2)cc1CCCC(=O)O [CNBBA, 4-(4′-(Carboxymethyl)-4-(nonyloxy)-[1,1′-biphenyl]-3-yl) Butanoic Acid]
pIC50 [2]: 5.29 | fold difference [2]: 5.8

CCCCCCCCCOc1ccc(-c2ccc(C(=O)O)cc2)cc1CCCC(=O)O [CNBCA, 3′-(3-Carboxypropyl)-4′-(nonyloxy)-[1,1′-biphenyl]-4-carboxylic Acid]
nontarget PTP1B remaining in solution, band density ([4]; 49° C.): approximately 50% | nontarget PTP1B remaining in solution, band density ([4]; 55° C.): 25% | nontarget PTP1B remaining in solution, band density ([4]; 58° C.): less than 10% | colony formation in soft agar [5]: fewer and smaller colonies | pIC50 [6]: 6.21 | pIC50 ([7]; 10 μM DiFMUP): 4.60 | Selectivity ratio, PTP1B ([7]; PTP1B IC50 over SHP2 IC50): 28.73 | better SHP2 IC50 than CNBBA [2]: 5.8 fold | better SHP2 IC50 than the parent compound CNBDA [2]: 5.7 fold | pIC50 [2]: 6.06 | Selectivity ratio, SHP2 ([2]; SHP2 IC50 as reference): 1.0 | fold difference [2]: 1.0 | mammosphere formation [8]: fewer and smaller mammospheres | mechanism of inhibition [9]: competitive inhibitor | Km ([9]; in the presence of 1.0 μM CNBCA): 125 µM | Km ([9]; in the presence of 2.0 μM CNBCA): 291 µM | cell growth in 2D culture [10]: still half-confluent | pIC50 ([11]; 35 μM DiFMUP): 4.46 | more selective for SHP2 than for SHP1 ([11]; from IC50 values): 39.77 fold | basal pERK1/2 and pAkt levels ([12]; 0.250 to 2.0 μM): downregulation of basal pERK1/2 and pAkt levels by CNBCA treatment in a concentration dependent manner | pIC50 ([12]; BT474 and MDA-MB468 cells, band density, read-out: approximate IC50, SHP2 mediated Akt and ERK1/2 activation): ~6.00
